Experiments:
[1] = Cytotoxicity test of conjugate LDC11B; format: cell-based, human; conditions: human, 293A embryonic kidney cells, incubated 15-30 min, then 2-3 days
Method: (§1) Culture medium: RPMI 1640 Medium, no folic acid
(§2) 1) human lung cancer cell H460, ovarian cancer cell SKOV3, human embryonic kidney cell 293A were incubated at 37° C., 5% CO2 in RPMI 1640 medium containing 10% fetal bovine serum, the cells were passaged every 2-3 days.
(§3) 2) human lung cancer cell H460, ovarian cancer cell SKOV3, human embryonic kidney cell 293A were plated at 1×10^3 cells per well (96-well plate) and incubated for 8-12 h at 37° C., 5% CO2.
(§4) 3) Stock solutions of LDC conjugates or control were prepared in PBS solution. 100 μL/well of serially diluted LDC conjugates or control was added to the cells in the plate and incubated for 15-30 min at 37° C., 5% CO2. The culture medium in the wells was then removed by aspiration and the cells were incubated in fresh culture medium without conjugates (150 μL/well) for 2-3 days at 37° C., 5% CO2.
(§5) 4) CellTiter 96® Aqueous One Solution Cell Proliferation Assay (Promega) was added to each well to measure the amount of […] cells, and the plate was incubated in an incubator for 1 h at 37° C., 5% CO2.
(§6) 5) The plate was read at 490 nm on a microplate reader, and the cell survivals were compared for cells with or without the treatment of LDC conjugates. The LDC drug concentrations that are required for 50% cell death (IC50 values) were determined.

[2] = test system: human lung cancer cell H460; assay: Cytotoxicity test of conjugate LDC11B; format: cell-based; conditions: H460, incubated 15-30 min, then 2-3 days
Method: as §1, §2, §3, §4, §5, §6

[3] = test system: ovarian cancer cell SKOV3; assay: Cytotoxicity test of conjugate LDC11B; format: cell-based, human; conditions: SKOV3, incubated 15-30 min, then 2-3 days
Method: as §1, §2, §3, §4, §5, §6

Transplanted H460 tumor = assay: Inhibitory assay of conjugates LDC11A, LDC11B against xenograf tumors; format: in vivo, nude mice
Method: (§7) Animal: nude mice, aged 6-8 weeks, female
(§8) 1) human large cell lung cancer cell H460, ovarian cancer cell SKOV3, breast cancer cell line HCC1954, and human breast cancer cell SK-BR-3 were incubated at 37° C., 5% CO2 in IMDM medium containing 10% fetal bovine serum, the cells were passaged every 2-3 days.
(§9) 2) generation of tumors: 7×10^6 tumor cells were subcutaneously injected into the back of nude mice, and the mice were grouped for treatment after the tumor sizes were as large as about 100˜200 mm^3.
(§10) 3) treatment: 3 mice/group, treated with LDC11A, LDC11B, as well as controls MMAE and PBS with doses of 5 and 10 mg/kg every 5 days, three injections.
(§11) 4) the physical performance, body weights and tumor sizes of the animals were monitored. The number of animal death was recorded during the experiment.

[4] = test system: Transplanted HCC1954 tumor; assay: as above; format: in vivo, nude mice; conditions: for Body weight of mice / Tumor size: HCC1954 tumor, 10 mg/kg
Method: as §7, §8, §9, §10, §11

Transplanted SKOV3 tumor = assay: as above; format: in vivo, nude mice; conditions: for Body weight of mice / Tumor size: SKOV3 tumor, 10 mg/kg
Method: as §7, §8, §9, §10, §11

[5] = H460 tumor, 10 mg/kg, Before Injection
[6] = H460 tumor, 10 mg/kg, Five days after Injection 1
[7] = H460 tumor, 10 mg/kg, Five days after Injection 2
[8] = H460 tumor, 10 mg/kg, Five days after Injection 3

## CC[C@H](C)[C@@H]([C@@H](CC(=O)N1CCC[C@H]1[C@H](OC)[C@@H](C)C(=O)N[C@H](C)[C@@H](O)c1ccccc1)OC)N(C)C(=O)[C@@H](NC(=O)[C@H](C(C)C)N(C)C(=O)OCc1ccc(NC(=O)[C@H](CCCNC(N)=O)NC(=O)[C@@H](NC(=O)CCCCCN2C(=O)CC(SC[C@H](NC(=O)CNC(=O)[C@@H]3CCCN3C(=O)[C@H](CCCNC(=N)N)NC(=O)[C@H](CC(C)C)NC(=O)CNC(=O)[C@H](Cc3ccc(O)cc3)NC(=O)[C@H](CO)NC(=O)[C@H](Cc3c[nH]c4ccccc34)NC(=O)[C@H](Cc3c[nH]cn3)NC(=O)[C@@H](N)CCC(=O)O)C(=O)O)C2=O)C(C)C)cc1)C(C)C (stereo partly drawn) [LDC11A, P11-MC-Val-Cit-PAB-MMAE, reference compound]
[1]
  IC50: 1310 nM
[2]
  IC50: 667 nM
[3]
  IC50: 341 nM
Transplanted H460 tumor; H460 tumor, 10 mg/kg
  animal death / toxicity (in words): dead after the first injection
Transplanted H460 tumor; [5]
  Body weight of mice: 24.46 g
Transplanted H460 tumor; [6]
  Body weight of mice: Death
Transplanted H460 tumor; H460 tumor, 10 mg/kg, Three days after Injection 1
  Body weight of mice: 18.25 g

## CC[C@H](C)[C@@H]([C@@H](CC(=O)N1CCC[C@H]1[C@H](OC)[C@@H](C)C(=O)N[C@H](C)[C@@H](O)c1ccccc1)OC)N(C)C(=O)[C@@H](NC(=O)[C@H](C(C)C)N(C)C(=O)OCc1ccc(NC(=O)[C@H](CCCNC(N)=O)NC(=O)[C@@H](NC(=O)CCCCCN2C(=O)CC(SC[C@H](NC(=O)CNC(=O)[C@@H]3CCCN3C(=O)[C@H](CCCNC(=N)N)NC(=O)[C@H](CC(C)C)NC(=O)CNC(=O)[C@H](Cc3ccc(O)cc3)NC(=O)[C@H](CO)NC(=O)[C@H](Cc3c[nH]c4ccccc34)NC(=O)[C@H](Cc3c[nH]cn3)NC(=O)[C@H](CCC(=O)O)NC(=O)CC[C@H](NC(=O)c3ccc(NCC4=Nc5c([nH]c(N)nc5=O)NC4)cc3)C(=O)O)C(=O)O)C2=O)C(C)C)cc1)C(C)C (some centres unmarked) [LDC11B]
[1]
  IC50: 524 nM
Transplanted H460 tumor; H460, three injections at 10 mg/kg
  tumor growth (in words): can inhibit the tumor growth
Transplanted H460 tumor; [5]
  Body weight of mice: 21.85 g
  Tumor size: 225.32 mm^3
Transplanted H460 tumor; [6]
  Body weight of mice: 22.2 g
  Tumor size: 108.73 mm^3
Transplanted H460 tumor; [7]
  Body weight of mice: 22.55 g
  Tumor size: 0 mm^3
Transplanted H460 tumor; [8]
  Body weight of mice: 22.38 g
  Tumor size: 0 mm^3
[4]; HCC1954, three injections at 10 mg/kg
  tumor growth (in words): can inhibit the tumor growth
[4]; Before Injection
  Body weight of mice: 22.76 g
  Tumor size: 218.76 mm^3
[4]; Five days after Injection 1
  Body weight of mice: 22.56 g
  Tumor size: 87.51 mm^3
[4]; Five days after Injection 2
  Body weight of mice: 23.15 g
  Tumor size: 0 mm^3
[4]; Five days after Injection 3
  Body weight of mice: 23.48 g
  Tumor size: 0 mm^3
Transplanted SKOV3 tumor; SKOV3, three injections at 10 mg/kg
  tumor growth (in words): can inhibit the tumor growth
Transplanted SKOV3 tumor; Before Injection
  Body weight of mice: 22.11 g
  Tumor size: 169.22 mm^3
Transplanted SKOV3 tumor; Five days after Injection 1
  Body weight of mice: 24.28 g
  Tumor size: 137.66 mm^3
Transplanted SKOV3 tumor; Five days after Injection 2
  Body weight of mice: 23.6 g
  Tumor size: 76.13 mm^3
Transplanted SKOV3 tumor; Five days after Injection 3
  Body weight of mice: 24.92 g
  Tumor size: 27.84 mm^3

— patent publication US11571480B2, “Multi-ligand drug conjugates and uses thereof” (priority 2015, dated 2023)
